Patent publication US10858479B2, “Y-type discrete polyethylene glycol derivative and preparation method thereof” (JenKem Technology Co., Ltd. (Beijing), priority 2015, dated 2020)
Read-outs that look alike come from different tables or passages of the source.

Experiments:
[1] = Comparison test of solubility of derivatives in water
Protocol: 20.0 mg cholesterol derivative of (l) prepared in Example 7 was dispersed in 50 mL water, 5 mL was taken out therefrom and added with 1.5 mL water, the resulting mixture was placed in a 20° C. water bath, and shaken vigorously for 30 s every 5 min.
24.2 mg cholesterol derivative of mEG7-OH prepared in Example 8 was dispersed in 50 mL of water, 5 mL was taken out therefrom and added with 5 mL water, the resulting mixture was shaken vigorously for 30 s every 5 min.
111.0 mg the hexadecanol derivative of (1) prepared in Example 7 was dispersed in 25 μL of water and shaken vigorously for 30 s every 5 min.
112.9 mg the hexadecanol derivative of mEG7-OH prepared in Example 8 was dispersed in 50 μL of water and shaken vigorously for 30 s every 5 min.
101.3 mg the menthol derivative of mEG7-OH prepared in Example 8 was dispersed in 50 μL of water and vigorously shaken for 30 s every 5 min. After 30 min, the solution was turbid; another 50 μL of water was added, the resulting mixture was vigorously shaken for 30 s every 5 min.

[2] = Comparison test of dispersibility of cholesterol and cholesterol derivatives in water; format: physicochemical; settings: 20 mg in 50 mL water, 20° C. water bath, FIG. 7

solubility [1]	solubility ([1]; listed as Cholesterol)	disperse state in water [2]	solubility ([1]; listed as Menthol)	solubility ([1]; listed as Hexadecanol)	Compound
< 0.2 mg/100 g H2O	<0.2 mg/100 g H2O	completely insoluble			CC(C)CCC[C@@H](C)[C@H]1CC[C@H]2[C@@H]3CC=C4C[C@@H](O)CC[C@]4(C)[C@H]3CC[C@]12C [cholesterol]
< 100 mg/100 g H2O			<100 mg/100 g H2O		CC1CCC(C(C)C)C(O)C1 (centres unmarked) [menthol]
< 1 mg/100 g H2O				<1 mg/100 g H2O	CCCCCCCCCCCCCCCCO [hexadecanol]
		white emulsion			COCCOCCOCCOCCOCCOCCOCCOC(=O)O[C@H]1CC[C@@]2(C)C(=CC[C@H]3[C@@H]4CC[C@H]([C@H](C)CCCC(C)C)[C@@]4(C)CC[C@@H]32)C1 [cholesterol derivative of mEG7-OH]
